Laboratory results as given in patent publication US6869974B1, “Pharmaceutical compounds” (Nicox S.A., priority 1999, dated 2005).
“Also recorded” adds a separate entry of the source.

Legend:
in vivo = conditions: rat, in vivo
Experimental: (§1) The animals (rats) are distributed in the following groups (no. 10 animals for group):
(§2) • 1° group: treatment: only carrier (aqueous suspension 1% w/v of carboxyymethylcellulose, dose: 5 ml/Kg when the drug is administered by os, or a physiologic solution when parenterally administered, i.e. by subcutaneous, intraperitoneal, ir-ravenous or intermuscular route), • 2° group: treatment: carrier as above defined+NEM, B) Groups treated with the drug: • group I: treatment: carrier+drug, • gruppo II: treatment: carrier+drug+NEM.
(§3) The administration routes are those known for the drug, and can be the oral or subcutaneous, intraperitoneal, intravenous or intramuscular route.
(§4) The animals are sacrificed after 24 hours and then one proceeds to the evaluation of the damage to the gastrointestinal mucosa.
(§5) Test 1—experimental model in vivo with N-ethylmaleimide (NEM): study of the gastric tolerability of some drugs screened as precursors of the compounds of the invention.
(§6) The animals (rats, weight about 200 g) are distributed in the following groups (No. 10 animals for group):
(§7) • 1° group: treatment: only carrier (aqueous suspension 1% w/v of carboxymethylcellulose, dose: 5 ml/Kg when the drug is administered by os, physiologic solution when by parenteral route), • 20 group: treatment: carrier+NEM, B) Groups administered with each drug: • group I: treatment: carrier+drug, • group II: treatment: carrier+drug+NEM.
(§8) The drug is administered one hour later, in suspension in the carrier. Animals are sacrificed after 24 hours and evaluation of the damage to the gastrointestinal mucosa is made by counting the number of rats, inside each group, with lesions to the stomach at a visual inspection. The total number of said rats is then divided by the total number of rats of the group and multiplied by 100.

[1] = system: Human endothelial cells of the umbilical vein; experiment: Test 2 (CIP): apoptosis (DNA fragmentation) induced by cumene hydroperoxide in endothelial cells; assay type: cell-based; conditions: for activity at 100 µM: Homo sapiens, Endothelial cell, 1 h, read-out: Apoptosis % with respect to the controls treated only with CIP; for inhibition of apoptosis induced by CIP (in words, significance p<0.01): CIP 5 mM
Experimental: Test 2 (CIP): Protection parameter of endothelial cell against the oxidative stress induced by cumene hydroperoxide (CIP).
Human endothelial cells of the umbilical vein are prepared according to an usual standard procedure. Fresh umbilical veins are filled with a 0.1% by weight collagenase solution and incubated at 37° C. for 5 minutes.
The cells are collected from the perfusate by centrifugation and harvested in culture flasks T-75, pretreated with human fibronectin. The cells are then harvested in the same medium, further added with 10 ng/ml of bovine hypothalamic growth factor. When the cells of the primary cell culture (i.e. that directly obtained from ex-vivo) form a single layer of confluent cells (about 8,000,000 cells/flask), the culture is stopped and the layers washed and trypsinized. The cellular suspensions are transferred into the wells of a cell culture plate having 24 wells, half of which is then additioned with the same culture medium containing the drug at a 10^−4M concentration, and harvested in a thermostat at 37° C. at a constant moisture. Only the cells coming from said first sub-cultures are used for the experiments with cumene hydroperoxide (CIP).
Before starting the test, the cellular culture medium is removed and the cellular layers are carefully washed with a physiologic solution at a temperature of 37° C. The wells of the culture plate are then incubated for one hour with CIP at a 5 mM concentration in the culture medium. […] 5 replicates for each sample are carried out.
Human endothelial cells of the umbilical vein are prepared according to a standard method. Fresh umbilical veins are filled with a collagenase solution 0.1% by weight and incubated at 37° C. for 5 minutes.
The cells are collected from the perfusate by centrifugation at 800 rpm and harvested in culture flasks T-75, pretreated with human fibronectin. Cells are then harvested in the same medium, added with bovine hypothalamic growth factor (100 ng/ml). When the cells of the primary cell culture (the cells directly removed from ex-vivo umbilical vein) form a single layer of confluent cells (abdut 8,000,000 cells/flask), harvesting is stopped and the layers are washed and trypsinized. The cellular suspensions are transferred into wells of a culture plate having 24 wells, half of said wells being added with the same culture medium containing the drug at a 10^−4M concentration, and harvested in a thermostat at 37° C. at a constant moisture (90%), CO2=5%. When the drug is not soluble in the culture medium, it is formerly dissolved in a small amount of di-methylsulphoxide. The maximum amount of dimethylsulphoxide which can be added to the culture medium is 0.5%. Only the cells coming from these first subcultures are used for the tests with cumene hydroperoxide (CIP).
Before starting the test, the cellular culture medium is removed and the cellular layers are carefully washed with a standard physiologic solution buffered with phosphate 0.1 M pH 7.0, at the temperature of 37° C. The content of each well is then incubated for one hour with a CIP suspension in the culture medium at a 5 mM concentration. Evaluation of the cellular damage (apoptosis) is carried out by determining the percent variation of the DNA fragmentation in the cultures containing the drug+CIP with respect to the controls treated with CIP only. […] The fluorescence of each sample was determined on 5 replicates. Statistic evaluation has been made with t Student test (p<0.01).

[2] = Test 4: inhibition of radical production from DPPH; conditions: 100 μM (10^-4 M) in methanol, 30 minutes, absorbance 517 nm
Experimental: Test 4 is a […] test which affords to establish whether the precursor of B or B1 (precursor of the X2 or X2a of the formulas (I) and (II) respectively), inhibits the production of radicals from DPPH (2,2-diphenyl-1-picryl-hydrazyl) (M. S. Nenseter et Al., Atheroscler. Thromb. 15, 1338-1344, 1995). 100 μM solutions in methanol of the tested substances are prepared, and an aliquot of each of said solutions is added to a DPPH solution in methanol […]. After having stored the solutions at room temperature away from light for 30 minutes, their absorbances are read at the wave length of 517 nm, together with that of the corresponding DPPH solution at the same concentration. The absorbance decrease with respect to that of the solution of DPPH at the same concentration of the test solutions is determined. The effectiveness of the tested compound in inhibiting formation of radicals by DPPH is expressed by the following formula: (1−AS/AC)X100 wherein AS and AC are respectively the absorbance values of the solution containing the test compound together with DPPH and of the solution containing only DPPH.
The B or B1 precursor satisfies test 4 if their effectiveness in inhibiting radical production as above defined, is equal to or higher than 50% at the indicated concentration (10^−4 M).
Test 4: inhibition of the radical production from DPPH of some substances to be used as precursors of B or B1 (ref. Formulas I and II of the invention)
The method is based on a colorimetric test in which DPPH (2,2-diphenyl-1-picryl-hydrazyl) is used as the compound-forming radicals (M. S. Nenseter et Al., Atheroscler. Thromb. 15, 1338-1344, 1995).
Solutions in methanol of the tested substances at a final concentration 100 μM are initially prepared. 0.1 ml of each of these solutions are added to aliquots of 1 ml of a methanol solution 0.1 M of DPPH and then the final volume is brought to 1.5 ml. After having stored the solutions at room temperature away from light for 30 minutes, the absorbance at the wave length of 517 nm is read. It is determined the absorbance decrease with respect to the absorbance of a solution containing the same concentration of DPPH.
The efficacy of the test compound to inhibit the production of radicals, or antiradical activity, is expressed by the following formula: (1−AS/AC)X100 wherein AS and AC are, respectively, the absorbance values of the solution containing the test compound together+DPPH and of the solution containing only DPPH.
The compound meets test 4 if radical production inhibition, as above defined, is equal to or higher than 50%.

[3] = system: rats not treated or treated with NEM; experiment: in vivo; conditions: rats not treated with NEM; single dose; route given with each value (p.o., i.c., s.c.)
Experimental: as §1, §2, §3, §4, §5, §6, §7, §8

[4] = Table II, drug 10^-4 M, CIP 5 mM for one hour, DNA fragmentation

Compound | activity at 100 µM [1, 4] | inhibition of apoptosis induced by CIP (in words, significance p<0.01) ([1]; drug 10^-4 M) | also measured
CCCCC(C)(O)C/C=C/[C@H]1[C@H](O)CC(=O)[C@@H]1CCCCCCC(=O)OC (mixture of isomers) [Misoprostol, misoprostol] | – | – | MTD at 24 h (in vivo): 0.5 mg/kg
NCCCC(O)(P(=O)(O)O)P(=O)(O)O [Alendronate, sodic alendronate] | 160% | do not significantly inhibit apoptosis | –
Nc1c(Br)cc(Br)cc1CN[C@H]1CC[C@H](O)CC1 [Ambroxol, ambroxol] | – | inhibit apoptosis | –
CC1(C)S[C@@H]2[C@H](NC(=O)[C@H](N)c3ccccc3)C(=O)N2[C@H]1C(=O)O [Ampicilline, ampicilline] | – | do not significantly inhibit apoptosis | –
N[C@@H](CS)C(=O)O [Cisteine, cisteine] | – | – | % inhibition radicals from DPPH ([2]; 100 µM): 100%
Cn1c(=O)c2c(ncn2CC(O)CO)n(C)c1=O (stereo not shown) [Diphylline, diphylline] | 95% | do not significantly inhibit apoptosis | –
COc1cc(/C=C/C(=O)O)ccc1O [Ferulic acid, ferulic acid] | – | – | % inhibition radicals from DPPH ([2]; 100 µM): 100%
O=C(O)c1cc(O)ccc1O [Gentisic acid, gentisic acid] | – | – | % inhibition radicals from DPPH ([2]; 100 µM): 80%
COc1ccc2c(c1)c(CC(=O)O)c(C)n2C(=O)c1ccc(Cl)cc1 [Indomethacin, indomethacin] | 95% | not significantly different with respect to that of the controls | maximum tolerated dose (dose (mg/Kg)/admin. route) [3]: 7.5 mg/kg; Apoptosis % with respect to the controls treated only with CIP ([1]; Table III, second apoptosis experiment (Example F6), CIP-induced DNA fragmentation): 95%; inhibition of apoptosis induced by CIP (in words, significance p<0.01) ([1]; drug 10^-4 M, listed as indomethacin): do not significantly inhibit apoptosis
Nc1ccc(O)c(C(=O)O)c1 [Mesalamine, mesalamine] | 74% | inhibit apoptosis; also recorded: inhibits the apoptosis induced by CIP | MTD at 24 h (in vivo): 750 mg/kg
CC(=O)N[C@H](CS)C(=O)O [N-acetylcisteine] | – | – | % inhibition radicals from DPPH ([2]; listed as N-acetylcysteine, 100 µM): 100%
NC(=O)c1cccnc1 [Nicotinamide, nicotinamide] | 98% | do not significantly inhibit apoptosis | –
COc1ccc2[nH]c([S+]([O-])Cc3ncc(C)c(OC)c3C)nc2c1 (stereo not shown) [Omeprazol, omeprazol] | 90% | do not significantly inhibit apoptosis | maximum tolerated dose (dose (mg/Kg)/admin. route) [3]: 30/s.c. mg/Kg
CC(=O)Nc1ccc(O)cc1 [Paracetamol, paracetamol] | 120% | do not significantly inhibit apoptosis; also recorded: not significantly different with respect to that of the controls | –
CC(C)(S)[C@@H](N)C(=O)O [Penicillamine, penicillamine] | – | – | % inhibition radicals from DPPH [2]: 100%
CC(C)(C)NCC(O)c1ccc(O)c(CO)c1 (stereo not shown) [Salbutamol, salbutamol] | 90% | do not significantly inhibit apoptosis | –
CCC(C)(C)C(=O)O[C@H]1C[C@@H](C)C=C2C=C[C@H](C)C(CCC3CC(O)CC(=O)O3)[C@H]21 (stereo partly shown) [Simvastatine, simvastatine] | 72% | – | –
Nc1c2c(nc3ccccc13)CCCC2 [Tacrine, tacrine] | 90% | do not significantly inhibit apoptosis | maximum tolerated dose (dose (mg/Kg)/admin. route) [3]: 1/s.c. mg/Kg
aciclovir | – | do not significantly inhibit apoptosis | Apoptosis % with respect to the controls treated only with CIP [1, 4]: 95%
cetirizine | – | do not significantly inhibit apoptosis | Apoptosis % with respect to the controls treated only with CIP [1, 4]: 115%
clopidogrel | – | do not significantly inhibit apoptosis | Apoptosis % with respect to the controls treated only with CIP [1, 4]: 110%
enalapril | – | do not significantly inhibit apoptosis | –
